In article PMC8145938, “Triphenilphosphonium Analogs of Chloramphenicol as Dual-Acting Antimicrobial and Antiproliferating Agents” (Antibiotics, 2021):
Converted amounts (≈) assume the structure as drawn. Where two headings read alike, the source gives them in different places.

Assays:
[1] = system: B. subtilis pHT01-cat; experiment: MIC determination, broth microdilution; assay type: cell-based; settings: Bacillus subtilis, PHT01CAT
Experimental: (§1) E. coli ∆tolC CHL-resistant strain harboring plasmid encoding for chloramphenicol acetyltransferase (cat) (pCA24N-LacZ) and the control E. coli ∆tolC strain was used to evaluate the inhibitory effect of the compounds. CHL-resistant strains of B. subtilis pHT01-cat and B. subtilis pHT01-cfr were prepared by means of a transformation of a B. subtilis 168 strain with plasmids harboring the cat and cfr genes (chloramphenicol-florfenicol resistance) gene. The cfr gene encodes for the methyltransferase, which catalyzes the methylation of […] in the 23S rRNA and causes resistance to a variety of ribosome-targeting antibiotics that bind in the A site of the bacterial ribosome.
(§2) A standard laboratory strain of B. subtilis 168 was used to obtain the CHL-resistant strains, B. subtilis pHT01-CAT and B. subtilis pHT01-cfr, by means of transformation with the corresponding plasmids. Competent cell preparation and transformation procedures were conducted, as reported in [74, 75]. The desired colonies were selected at 10 µg/mL of CHL for B. subtilis pHT01 and 5 µg/mL or 3.2 µg/mL of CHL for B. subtilis pHT01-cfr.
(§3) The MICs for CAM-Cn-TPP and Cn-TPP were determined by Mueller-Hinton broth microdilution, as recommended by CLSI in the Methods for Dilution Antimicrobial Susceptibility Tests for Bacteria that Grow Aerobically, Approved Standard, 9th ed., CLSI document M07-A9, using in-house-prepared panels. The compounds were diluted in a 96-well microtiter plate to final concentrations ranging from 0.5 to 360 μM in a 250-µL aliquot of the bacterial suspension, followed by incubation at 37 °C or 30 °C for 18 h. […] The bacterial growth was observed visually alongside OD measurements. The experiments were carried out in triplicate.

[2] = system: B. subtilis pHT01-cfr; experiment: MIC determination, broth microdilution; assay type: cell-based; settings: Bacillus subtilis, PHT01CFR
Experimental: as §1, §2, §3

[3] = system: Bacillus subtilis; experiment: MIC determination, broth microdilution; assay type: cell-based
Excerpt: (§4) Standard laboratory strains of Bacillus subtilis subs. subtilis Cohn 1872, stains BR151, and 168, Staphylococcus aureus subsp. aureus Rosenbach 1884 strains JCM 2151 and entry MC#144 (from the Microorganisms Collection of the Moscow State University), Listeria monocytogenes Pirie 1940, Mycobacterium smegmatis Lehmann and Neumann 1899 (MC#377), and Escherichia coli Castellani and Chalmers 1919, strain JW5503 (with the deletion of tolC gene), which are resistant to the chloramphenicol strains, J53rif, C600rif/pIB55-1, C600rif/pIP162-1, and C600recA naI, were used.
as §3

[4] = system: Mycobacterium smegmatis; experiment: MIC determination, broth microdilution; assay type: cell-based; settings: Mycolicibacterium smegmatis
Excerpt: as §4, §3

[5] = system: E. coli S30 extract cell-free transcription-translation system; experiment: inhibition of firefly luciferase synthesis in cell-free bacterial translation system; assay type: biochemical; settings: 30 µM compound
Experimental: The next step was to test the new CAM-Cn-TPP compounds for their ability to inhibit the synthesis of the firefly luciferase reporter in vitro in a cell-free transcription-translation system based on an E. coli S30 extract.
The inhibition of firefly luciferase synthesis in cell-free translation systems by CAM-Cn-TPP was tested with an E. coli S30 Extract System for Linear Templates (Promega, Madison, […], USA). The reactions were programmed with 100 ng of mRNA and were carried out in 5 μL aliquots at 37 °C for 30 min. The activity of in vitro synthesized luciferase was assessed using 5 μL of the substrate from the Steady-Glo Luciferase Assay System (Promega).

[6] = system: E. coli 70S ribosomes; experiment: competition-binding assay with BODIPY-ERY (fluorescence anisotropy); settings: for Kd: displacement of BODIPY-ERY from E. coli 70S ribosomes, read-out: apparent dissociation constant (KDapp)
Excerpt: All new semi-synthetic CAM-Cn-TPP compounds were expected to bind and act on bacterial ribosomes by inhibiting protein synthesis, which is similar to CAM-C4-TPP and the PTC-targeting parent antibiotic CHL. To assess the affinity of CAM-C10-TPP and CAM-C14-TPP for the bacterial 70S ribosome (Figure 2A), a competition-binding assay exploiting BODIPY-labeled erythromycin (BODIPY-ERY) was used. […] It is likely that in the case of CAM-C14-TPP, the linker may be too long, preventing the optimal positioning of the TPP moiety in the NPET. Thus, CAM-C10-TPP and CAM-C14-TPP bind to the bacterial ribosome. However, their affinity strongly depends on the length of the linker connecting the two […]. Among the three CAM-Cn-TPPs, the C10-linker was optimal in terms of its ability to bind to the 70S ribosome.
The binding affinity of CAM-Cn-TPP to E. coli ribosomes was analyzed by a competition-binding assay using the fluorescently-labeled BODIPY-ERY, as described before. BODIPY-Ery (16 nM) was incubated with the ribosomes (50 nM) in the buffer containing 20 mM HEPES-KOH (pH 7.5), 50 mM NH4Cl, 10 mM Mg(CH3COO)2, 4 mM mercaptoethanol, and 0.05% Tween-20 for 30 min at 25 °C. Solutions of CHL, CAM-Cn-TPP, and CnTPP in different concentration ranges were added to the formed complex. The mixture was incubated for 2 h, until an equilibrium was reached, and the values of fluorescence anisotropy were measured by VICTOR X5 Multilabel Plate Reader (Perkin Elmer, Waltham, MA, USA). The dissociation constants were calculated based on the assumption of the equilibrium competitive binding of two ligands at a single binding site, as described in [70].

[7] = system: E. coli BW25113 ΔtolC pDualrep2 reporter strain; experiment: pDualrep2 double fluorescent reporter assay on agar plate; assay type: cell-based; settings: compound spotted on agar lawn, overnight 37 °C
Excerpt: Next, we tested the effects of CAM-C10-TPP and CAM-C14-TPP in bacterial cells using an E. coli ∆tolC-based reporter system, which is designed to screen inhibitors targeting either protein synthesis or DNA replication. In this reporter system, the gene of the far-red fluorescent protein, katushka2S, is inserted downstream of the genetically modified tryptophan attenuator, making it possible to express Katushka2S only upon exposure to ribosome-stalling compounds (Figure 2B, CHL and ERY, red pseudocolor rings).
Reporter strain […] [71] ΔtolC (BW25113) pDualrep2 was used, as previously described. The tested antibiotics, CAM-C10-TPP (10 mM, 1.5 μL), CAM-C14-TPP (10 mM, 1.5 μL), C10-TPP (10 mM, 1.5 μL), C14-TPP (10 mM, 1.5 μL), CAM (10 mM, 1.5 μL), CAM-Ac (10 mM, 1.5 μL), chloramphenicol (CHL, 2 mM, 1 μL), erythromycin (Ery, 7 mM, 1 μL), and levofloxacin (Lev, 70 nM, 1 μL), were applied to an agar plate that already contained a lawn of the reporter strain. After being incubated overnight at 37 °C, the plate was scanned by ChemiDoc (Bio-Rad) in the modes, “Cy3-blot” for RFP and “Cy5-blot” for Katushka2S.

[8] = Table 1, double-dilution method, read-out: MIC

Row | SMILES | MIC [1] | MIC [2] | MIC [3] | MIC [4] | inhibition of bacterial translation (luciferase synthesis) [5] | Kd [6] | greater affinity to the ribosome compared to CAM-C4-TPP ([6]; ratio of KDapp) | greater affinity to the ribosome compared to the parent CHL ([6]; ratio of KDapp) | induction of reporters (Katushka2S: ribosome stalling; RFP: DNA damage) [7] | lower affinity to the 70S ribosome compared to CHL ([6]; ratio of KDapp) | lower affinity to the 70S ribosome compared to other CAM-Cn-TPPs ([6]; ratio of KDapp) | MIC [3, 8] | MIC [4, 8]
1 | O=C(CCCCCCCCCC[P+](c1ccccc1)(c1ccccc1)c1ccccc1)N[C@H](CO)[C@H](O)c1ccc([N+](=O)[O-])cc1 [CAM-C10-TPP, (N-{[(1R,2R)-1,3-dihydroxy-1-(4-nitrophenyl)propan-2-yl]amino}-11-oxoundecyl)(triphenyl)phosphonium bromide] | 6 µM | 6 µM | 2 µM | 2 µM | inhibits bacterial translation | 0.4 ± 0.04 µM | ~ 1.5 fold | ~ 7 fold | red pseudocolor rings are observed due to the expression of the fluorescent protein, Katushka2S (but not RFP) |  |  |  | 
2 | O=C(CCCCCCCCCC[P+](c1ccccc1)(c1ccccc1)c1ccccc1)NCCCC(=O)N[C@H](CO)[C@H](O)c1ccc([N+](=O)[O-])cc1 [CAM-C14-TPP, N-[(1R,2R)-1,3-dihydroxy-1-(4-nitrophenyl)propan-2-yl]-4-(triphenyl)phosphoniumundecanamidobutamide bromide] | 12.5 µM | 6 µM | 12 µM | 8 µM | inhibits bacterial translation | 36 ± 9 µM |  |  | red pseudocolor rings are observed due to the expression of the fluorescent protein, Katushka2S (but not RFP) | ~ 13 fold | 60-90 fold |  | 
3 | O=C(N[C@H](CO)[C@H](O)c1ccc([N+](=O)[O-])cc1)C(Cl)Cl [CHL, chloramphenicol] | 180 µM (≈ 58.2 µg/mL) | 90 µM (≈ 29.1 µg/mL) |  |  | inhibits bacterial translation | 2.8 ± 0.4 µM |  |  | red pseudocolor rings are observed due to the expression of the fluorescent protein, Katushka2S (but not RFP) |  |  | 12 µM (≈ 3.88 µg/mL) | 6 µM (≈ 1.94 µg/mL)
